According to the NIST ThermoML archive (doi:10.1021/acs.jced.7b00106):

Settings: Hot wire method

FC(F)(F)/C=C/Cl [(E)-1-chloro-3,3,3-trifluoroprop-1-ene]
Settings | thermal conductivity [W/m/K]
362.89 K, 26388 kPa, Liquid | 0.07962
362.94 K, 8395 kPa, Liquid | 0.06981
362.97 K, 8410 kPa, Liquid | 0.06989
363.01 K, 5513 kPa, Liquid | 0.06793
363.02 K, 5522 kPa, Liquid | 0.06801
363.04 K, 15375 kPa, Liquid | 0.07401
363.05 K, 588 kPa, Fluid (supercritical or subcritical phases) | 0.01642
363.05 K, 3030 kPa, Liquid | 0.06616
363.06 K, 3018 kPa, Liquid | 0.06615
363.06 K, 18623 kPa, Liquid | 0.07592
363.07 K, 781 kPa, Liquid | 0.06438
363.07 K, 11657 kPa, Liquid | 0.07182
363.07 K, 11679 kPa, Liquid | 0.07186
363.07 K, 15350 kPa, Liquid | 0.07393
363.07 K, 18631 kPa, Liquid | 0.07609
363.08 K, 794 kPa, Liquid | 0.06441
363.17 K, 485 kPa, Fluid (supercritical or subcritical phases) | 0.01636
363.25 K, 8386 kPa, Liquid | 0.0699
363.25 K, 8410 kPa, Liquid | 0.06983
363.28 K, 18567 kPa, Liquid | 0.07546
363.3 K, 5515 kPa, Liquid | 0.0679
363.3 K, 15333 kPa, Liquid | 0.0739
363.3 K, 18619 kPa, Liquid | 0.07574
363.31 K, 369 kPa, Fluid (supercritical or subcritical phases) | 0.01625
363.31 K, 5517 kPa, Liquid | 0.06789
363.32 K, 15362 kPa, Liquid | 0.07394
363.34 K, 11659 kPa, Liquid | 0.07179
363.35 K, 3013 kPa, Liquid | 0.06606
363.35 K, 11674 kPa, Liquid | 0.07181
363.36 K, 3021 kPa, Liquid | 0.06613
363.38 K, 789 kPa, Liquid | 0.06433
363.39 K, 791 kPa, Liquid | 0.06436
363.56 K, 18588 kPa, Liquid | 0.07568
363.56 K, 18589 kPa, Liquid | 0.07561
363.85 K, 18555 kPa, Liquid | 0.07553
363.86 K, 18574 kPa, Liquid | 0.07558
381.79 K, 728 kPa, Fluid (supercritical or subcritical phases) | 0.01756
381.91 K, 529 kPa, Fluid (supercritical or subcritical phases) | 0.01757
381.98 K, 885 kPa, Fluid (supercritical or subcritical phases) | 0.0177
381.99 K, 883 kPa, Fluid (supercritical or subcritical phases) | 0.01771
382.06 K, 727 kPa, Fluid (supercritical or subcritical phases) | 0.0176
382.19 K, 530 kPa, Fluid (supercritical or subcritical phases) | 0.01766
382.26 K, 884 kPa, Fluid (supercritical or subcritical phases) | 0.01776
382.27 K, 885 kPa, Fluid (supercritical or subcritical phases) | 0.01778
382.29 K, 1304 kPa, Liquid | 0.05933
382.3 K, 1303 kPa, Liquid | 0.0594
382.3 K, 7889 kPa, Liquid | 0.06498
382.3 K, 7898 kPa, Liquid | 0.065
382.32 K, 1195 kPa, Fluid (supercritical or subcritical phases) | 0.01851
382.32 K, 1196 kPa, Fluid (supercritical or subcritical phases) | 0.01849
382.35 K, 727 kPa, Fluid (supercritical or subcritical phases) | 0.01767
382.35 K, 20108 kPa, Liquid | 0.07266
382.36 K, 20093 kPa, Liquid | 0.07261
382.37 K, 6276 kPa, Liquid | 0.06375
382.38 K, 6283 kPa, Liquid | 0.06377
382.38 K, 35584 kPa, Liquid | 0.0803
382.39 K, 35567 kPa, Liquid | 0.08024
382.4 K, 16804 kPa, Liquid | 0.07075
382.41 K, 16825 kPa, Liquid | 0.07099
382.42 K, 33043 kPa, Liquid | 0.07905
382.42 K, 33046 kPa, Liquid | 0.07909
382.44 K, 13721 kPa, Liquid | 0.06888
382.45 K, 13744 kPa, Liquid | 0.06889
382.46 K, 28331 kPa, Liquid | 0.07696
382.47 K, 4293 kPa, Liquid | 0.06211
382.47 K, 28334 kPa, Liquid | 0.07681
382.48 K, 1001 kPa, Fluid (supercritical or subcritical phases) | 0.01789
382.48 K, 4301 kPa, Liquid | 0.06219
382.49 K, 529 kPa, Fluid (supercritical or subcritical phases) | 0.01769
382.49 K, 1000 kPa, Fluid (supercritical or subcritical phases) | 0.01794
382.5 K, 2615 kPa, Liquid | 0.06083
382.51 K, 2614 kPa, Liquid | 0.06065
